According to US10209240B2, “Predicting human developmental toxicity of pharmaceuticals using human stem-like cells and metabolomic ratios” (STEMINA BIOMARKER DISCOVERY, INC., priority 2012, dated 2019):
Where two headings read alike, the source gives them in different places.

Assays:
[1] = cited from earlier work
Rodent = conditions: cited from earlier work; for Rodent in vivo test results: Embryotoxic: embryotoxic effect in the absence of teratogenic effects and maternal toxicity; for Rodent in vivo test results: Teratogenic: structural malformations in the absence of maternal toxicity; for Rodent developmental toxicity testing, result in words: relation to maternal toxicity where stated
Rabbit = conditions: cited from earlier work
WA09 hES cells [2] = experiment: Phase 2 targeted biomarker assay, ornithine/cystine ratio, 9-point dose response; conditions: for Teratogenicity Potential (μM) O/C Ratio: human, 72 h
From the text: Undifferentiated hES Cell Line Maintenance (Phases 1 and 2). WA09 hES cells were obtained from the WiCell Research Institute (Madison, Wis.) and were maintained in feeder free conditions using mTeSR1 media (StemCell Technologies, Inc., Vancouver, BC, Canada) on hESC-qualified Matrigel (BD Biosciences, San Jose, Calif.) coated 6-well plates. To maintain the undifferentiated stem cell population, differentiated colonies were removed daily through aspiration and media was replaced. Additionally, the hES cells were only used in experiments up to passage 40 and were karyotyped approximately every 10 passages to minimize and monitor the potential for genetic instability. hES cells were passaged at 90-95% confluency (approximately every 7 days) using Versene (Life Technologies, Grand Island, N.Y.). Cell cultures were maintained at 37° C. under 5% CO2.
96-well hES Cell Plating (Phases 1 and 2). All experimental treatments were carried out in 96-well plates. To minimize plating variability and increase reproducibility, hES cells were plated as a single cell suspension and maintained in an undifferentiated state during compound exposure. Prior to plating in the 96-well plates, hES cells were removed from a 6-well plate using TrypLE (Life Technologies). The cells were washed with DMEM/F12 (Life Technologies) and resuspended in mTeSR1 containing 10 μM Y27632 Rho-associated kinase (ROCK) inhibitor (Merck KGaA/Calbiochem, Darmstadt, Germany). The ROCK inhibitor is added to the plating media to increase plating efficiency by decreasing dissociation-induced apoptosis. The inner 60 wells of hESC-qualified Matrigel coated 96-well plates were seeded at a density of 100,000 cells per well. The outer wells of the plate contained an equal volume media to minimize differences in humidity across the plate. Compound exposure began 24 hours after plating.
(§1) Phase 2 hES Cell Compound Exposure. […] The standard compound exposure levels used for most compounds were nine, 3-fold dilutions ranging from 0.04 μM-300 μM (FIG. 1B). […] The stock solution was diluted 1:1000 in mTeSR1 media and subsequent dilutions were performed in mTeSR1 containing 0.1% DMSO such that the final concentration of DMSO was 0.1% in all treatments. hES cells were treated for 72 hours and spent media from the last 24-hour treatment period was collected and added to acetonitrile containing ^13C6 labeled arginine (Cambridge Isotope Laboratories, Andover, Md.) as described under Phase 1. Spent media samples were stored at −80° C. until prepared for LC-HRMS analysis. Cell viability was assessed using the CellTiter-Fluor Cell Viability Assay. A quality control step was included with criteria that the CV of the measured viability RFU of the DMSO control cells could not exceed 10% for a plate to undergo LC-HRMS analysis. A dose response curve was fit to the reference treatment (0.1% DMSO treated control cells) normalized data (Viability RFUTrt X/Viability RFUDMSO) using a four-parameter log-logistic model with the R package “drc” (Ritz and Streibig, 2005, J Statistical Software; 12:1-22).
Sample Preparation (Phases 1 and 2). High molecular weight constituents (>10 KDa) of the spent media samples were removed using a Millipore Multiscreen Ultracel-10 filter plate (EMD Millipore, Billerica, Mass.). Prior to sample filtration, the filter plate was washed with 0.1% NaOH to remove a known contaminant polymer. The plate was then rinsed twice with HPLC-grade water to remove residual polymers and NaOH. Spent media samples were added to the washed filter plate. In Phase 1, samples were spiked with ^13C6 labeled arginine. Samples were centrifuged at 2,000×g at 4° C. for 200 minutes. The filtrate was collected and concentrated overnight in a Savant High Capacity Speedvac Plus Concentrator.

[3] = summarized from TERIS and Briggs et al. 2011, cited from earlier work; for Preclinical in vivo developmental effects: application set compounds; for Preclinical in vivo and known human developmental effects: test set compounds
WA09 hES cells [4] = tested on: WA09 hES cells
Experimental: Phase I hES Cell Compound Exposure. hES cells were treated with a test compound at a single concentration equivalent to the compound's published therapeutic Cmax. […] This was done to ensure that enough cells were present at the time of sample collection to provide a signal for LC-HRMS analysis. For test compound exposure, all compound stock solutions, with the exception of valproic acid, were made with DMSO (Sigma-Aldrich). […] Each 96-well plate included media controls with and without test compound, 0.1% DMSO solvent control cells and cells exposed to a single concentration of eight different test compounds (FIG. 1A). Media controls were included on each plate to assess the impact of test compound on the sample matrix. hES cells were exposed to the test compound for 72 hours, with media and test compound replacement every 24 hours. Cells were monitored throughout the treatment period to ensure that no differentiation was occurring. After 72 hours of treatment, the spent media from the final 24-hour treatment period was collected and added to acetonitrile (Sigma-Aldrich, final acetonitrile concentration 40%), to halt metabolic processes and precipitate proteins from solution. Individual wells from each 96-well plate were collected and analyzed as separate samples. These samples were then stored at −80° C. until prepared for LC-HRMS analysis. Cell viability was assessed using the CellTiter-Fluor Cell Viability Assay as per the manufacturer's instructions (Promega, Madison, Wis.). Quality control parameters were set such that if the coefficient of variation (CV) for the viability relative fluorescent units (RFU) of the 6 cellular samples in a treatment exceeded 10% and no outliers were identified using the Grubb's test (see the worldwide web at graphpad.com/quickcalcs/Grubbs1.cfm), analysis was halted for that compound and the cell culture experiment was repeated. If outliers were present, the outlier sample was removed from analysis. If the CV for the DMSO control cell samples on a plate were outside of the quality control parameters, the entire plate was repeated. hES cell exposure to each of the 23 compounds was replicated a total of nine times.
as §1
Phase 2 Prediction of Developmental Toxicity Potential. […] FIG. 2 illustrates how the assay is applied in this situation. A test compound is considered to be teratogenic at the exposure level where the o/c ratio exceeds the teratogenicity threshold (red box, FIG. 2).

Humans = conditions: cited from earlier work
[5] = application set, peak plasma concentration in humans
[6] = test set, therapeutic peak plasma in vivo concentration, human

Row | SMILES | Targeted Biomarker Assay prediction (WA09 hES cells [2]) | Cmax [1, 5] | Rodent prediction (Rodent; application set) | Rabbit prediction (Rabbit; application set) | Teratogenicity Potential (μM) O/C Ratio (WA09 hES cells [2]) | Preclinical in vivo developmental effects [3] | Teratogenicity Potential (μM) Cell Viability (WA09 hES cells [4]; human, 72 h) | Cmax [1, 6] | Humans (known human developmental toxicity) (Humans; training and test set) | other results
1 | Nc1nc(NC2CC2)c2ncn([C@H]3C=C[C@@H](CO)C3)c2n1 [Abacavir] | NON | 14.9 µM | TER | NON | 95.1 µM | Skeletal, embryo toxicity^c | 94.1 µM | – | – | Rodent in vivo test results: Embryotoxic (Rodent; application set): +; Rodent in vivo test results: Teratogenic (Rodent; application set): +
2 | Nc1nc2c(ncn2COCCO)c(=O)[nH]1 [Acycloguanosine] | NON | – | – | – | – | – | >300 µM | 3 µM | NON | Viability Prediction (WA09 hES cells [4]; test set, teratogenicity potential scored against therapeutic Cmax): NON
3 | CC(C)(C)C(=O)OCOP(=O)(COCCn1cnc2c(N)ncnc21)OCOC(=O)C(C)(C)C [Adefovir dipivoxil] | TER | 0.03 µM | – | – | – | – | – | – | – | Rodent developmental toxicity testing, result in words (Rodent): only embryotoxic at exposure levels that also caused maternal toxicity; Teratogenicity Potential (μM) Cell Viability (WA09 hES cells [4]; application set, interpolated concentration where cell viability dose response curve crosses teratogenicity threshold 0.88, 72 hours): 0.02 µM
4 | CC(C)CN(C[C@@H](O)[C@H](Cc1ccccc1)NC(=O)O[C@H]1CCOC1)S(=O)(=O)c1ccc(N)cc1 [Amprenavir] | NON | 15.1 µM | TER | TER | 236.9 µM | Skeletal, embryo toxicity^c | 259.5 µM | – | – | Rodent in vivo test results: Embryotoxic (Rodent; application set): +; Rodent in vivo test results: Teratogenic (Rodent; application set): +
5 | C[C@H]1[C@H](OC(=O)CCC(=O)O)O[C@@H]2O[C@@]3(C)CC[C@H]4[C@H](C)CC[C@@H]1[C@@]24OO3 [Artesunate] | TER | 73.9 µM | – | – | – | – | 0.58 µM | – | – | –
6 | Cn1c(=O)c2c(ncn2C)n(C)c1=O [Caffeine] | – | – | – | – | – | – | >300 µM | – | – | Cmax ([1]; training set, therapeutic peak plasma in vivo concentration, human): 9.3 µM; Humans (known human developmental toxicity) (Humans; in vivo): NON

Now from value to molecule, other results behind:

Row | Targeted Biomarker Assay prediction (WA09 hES cells [2]) | SMILES | Cmax [1, 5] | Rodent prediction (Rodent; application set) | Rabbit prediction (Rabbit; application set) | Teratogenicity Potential (μM) O/C Ratio (WA09 hES cells [2]) | Preclinical in vivo developmental effects [3] | Teratogenicity Potential (μM) Cell Viability (WA09 hES cells [4]; human, 72 h) | Cmax [1, 6] | Humans (known human developmental toxicity) (Humans; training and test set) | other results
7 | NON | COc1ccccc1Oc1c(NS(=O)(=O)c2ccc(C(C)(C)C)cc2)nc(-c2ncccn2)nc1OCCO [Bosentan] | – | – | – | 44.9 µM | – | 221.9 µM | 2 µM | TER | Rodent prediction (Rodent; training and test set): TER; Rabbit prediction (Rabbit; training and test set): NON; O/C Ratio Prediction (WA09 hES cells [2]): NON; Preclinical in vivo and known human developmental effects [3]: Craniofacial,; Viability Prediction (WA09 hES cells [4]): NON
8 | TER | Nc1ccn(C[C@@H](CO)OCP(=O)(O)O)c(=O)n1 [Cidofovir] | 41.2 µM | NON | NON | 0.3 µM | None | 1.9 µM | – | – | Rodent developmental toxicity testing, result in words (Rodent): only embryotoxic at exposure levels that also caused maternal toxicity
9 | TER | CCN(CC)C(=O)/C(C#N)=C/c1cc(O)c(O)c([N+](=O)[O-])c1 [Entacapone] | 3.9 µM | TER | NON | 6.7 µM | Eye defects | 127 µM | – | – | Rodent in vivo test results: Teratogenic (Rodent; application set): +
10 | TER | CO[C@H]1C[C@@H]2CC[C@@H](C)[C@@](O)(O2)C(=O)C(=O)N2CCCC[C@H]2C(=O)O[C@H]([C@H](C)C[C@@H]2CC[C@@H](OCCO)[C@H](OC)C2)CC(=O)[C@H](C)/C=C(\C)[C@@H](O)[C@@H](OC)C(=O)[C@H](C)C[C@H](C)/C=C/C=C/C=C/1C [Everolimus] | – | – | – | <0.04 µM | – | 5.2 µM | 0.02 µM | TER | Rodent prediction (Rodent; training and test set): TER; Rabbit prediction (Rabbit; training and test set): NON; Classification by o/c ratio in the targeted biomarker assay (WA09 hES cells [2]): classified as a teratogen; O/C Ratio Prediction (WA09 hES cells [2]): TER; Preclinical in vivo and known human developmental effects [3]: Skeletal, embryo toxicity^c; Viability Prediction (WA09 hES cells [4]): NON
11 | NON | CCC(=O)NCC[C@@H]1CCc2ccc3c(c21)CCO3 [Ramelteon] | 0.02 µM | NON | NON | 34 µM | None | >300 µM | – | – | Rodent developmental toxicity testing, result in words (Rodent): only embryotoxic at exposure levels that also caused maternal toxicity
12 | NON | N[C@@H](CC(=O)N1CCn2c(nnc2C(F)(F)F)C1)Cc1cc(F)c(F)cc1F [Sitagliptin] | – | – | – | 22.6 µM | – | >300 µM | 0.95 µM | NON | Rodent prediction (Rodent; training and test set): TER; Rabbit prediction (Rabbit; training and test set): NON; O/C Ratio Prediction (WA09 hES cells [2]): NON; Preclinical in vivo and known human developmental effects [3]: Low doses: None; High; Viability Prediction (WA09 hES cells [4]): NON
